Data from BindingDB's records for doi:10.3109/14756366.2011.645241 (Cairo University, 2013).
pIC50, pKi: −log10 of the molar value.

Columns and labels:
Cannabinoid receptor 2 = Cannabinoid receptor 2 (Homo sapiens, UniProt P34972); test: Cannabinoid Receptor Binding Assay
Description: (§1) Membranes from HEK-293 cells transfected with the human recombinant CB1 receptor(Bmax=2.5pmol/mg protein) and human recombinant CB2 receptor (B max=4.7 pmol/mgprotein) were incubated with [3H]-CP-55,940 (0.14 nM / Kd = 0.18 nM and 0.084nM / Kd =0.31 nM respectively for CB1 and CB2 receptor) as the high affinity ligand and displaced with 10 μM WIN 55212-2 as the heterologous competitor for non specific binding (Ki values 9.2 nM and 2.1 nM respectively for CB1 and CB2 receptor). All compounds were tested following the procedure described by the manufacturer (Perkin Elmer, Italy). Displacement curves were generated by incubating drugs with [3H]-CP-55,940 for 90 minutes at 30 C. Ki values were calculated by applying the Cheng-Prusoff equation to the IC50 values (obtained by GraghPad) for the displacement of the bound radioligand by increasing concentrations of the testcompound. Data are means±SEM of at least n=3 experiments.

Cannabinoid receptor 1 = Cannabinoid receptor 1 (Homo sapiens, UniProt P21554); test: Cannabinoid Receptor Binding Assay
Description: as §1

Sequence of Cannabinoid receptor 2 (P34972 whole entry): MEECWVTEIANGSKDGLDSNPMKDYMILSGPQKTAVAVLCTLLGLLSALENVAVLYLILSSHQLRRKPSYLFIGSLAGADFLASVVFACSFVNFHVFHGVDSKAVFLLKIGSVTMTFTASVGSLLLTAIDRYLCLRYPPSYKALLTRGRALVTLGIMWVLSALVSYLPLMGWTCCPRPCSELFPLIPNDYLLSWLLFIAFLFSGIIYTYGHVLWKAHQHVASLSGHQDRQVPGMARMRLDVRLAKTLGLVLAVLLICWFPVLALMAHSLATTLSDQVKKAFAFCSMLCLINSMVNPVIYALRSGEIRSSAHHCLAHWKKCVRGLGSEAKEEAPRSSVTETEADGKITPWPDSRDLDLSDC
Sequence of Cannabinoid receptor 1 (P21554 whole entry): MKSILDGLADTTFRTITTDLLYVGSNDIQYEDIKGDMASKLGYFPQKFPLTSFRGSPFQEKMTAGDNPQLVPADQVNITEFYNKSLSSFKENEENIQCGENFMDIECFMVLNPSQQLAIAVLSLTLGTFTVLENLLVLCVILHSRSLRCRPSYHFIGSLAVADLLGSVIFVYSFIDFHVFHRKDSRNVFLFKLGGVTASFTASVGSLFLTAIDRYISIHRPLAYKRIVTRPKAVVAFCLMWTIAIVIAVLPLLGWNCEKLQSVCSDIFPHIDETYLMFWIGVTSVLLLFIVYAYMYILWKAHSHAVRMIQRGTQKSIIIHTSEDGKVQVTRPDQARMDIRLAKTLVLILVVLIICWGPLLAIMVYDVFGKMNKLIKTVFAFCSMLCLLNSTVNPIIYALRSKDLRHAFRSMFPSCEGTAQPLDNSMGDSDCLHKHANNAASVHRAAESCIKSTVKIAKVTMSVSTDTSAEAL

CC(=O)Nc1ccc(OC(=O)CCC(=O)/C=C/c2ccccc2)cc1 [(E)-4-Acetamidophenyl 4-oxo-6-phenylhex-5-enoate (3l)]
< 5.00: pIC50 (Cannabinoid receptor 2) | pKi (Cannabinoid receptor 2) | pIC50 (Cannabinoid receptor 1) | pKi (Cannabinoid receptor 1)

CCC(C)(O)NC(=O)CCC(=O)/C=C/c1ccc(OC)c(OC)c1 (stereo not given) [(E)-6-(3,4-Dimethoxyphenyl)-N-(2-hydroxybutan-2-yl)-4-oxohex-5-enamide (3i)]
< 5.00: pIC50 (Cannabinoid receptor 2) | pKi (Cannabinoid receptor 2) | pIC50 (Cannabinoid receptor 1) | pKi (Cannabinoid receptor 1)

CCC(C)(O)NC(=O)CCC(=O)/C=C/c1ccc(OCc2ccccc2)cc1 (stereo not given) [(E)-6-(4-(Benzyloxy)phenyl)-N-(2-hydroxybutan-2-yl)-4-oxohex-5-enamide (3j)]
< 5.00: pIC50 (Cannabinoid receptor 2) | pKi (Cannabinoid receptor 2) | pIC50 (Cannabinoid receptor 1) | pKi (Cannabinoid receptor 1)

CCOC(=O)CNC(=O)CCC(=O)/C=C/c1ccc(OCc2ccccc2)cc1 [(E)-Ethyl 2-(6-(4-(benzyloxy)phenyl)-4-oxohex-5-enamido)acetate (3k)]
< 5.00: pIC50 (Cannabinoid receptor 2) | pKi (Cannabinoid receptor 2) | pIC50 (Cannabinoid receptor 1) | pKi (Cannabinoid receptor 1)

CCC(C)(O)NC(=O)CCC(=O)/C=C/c1ccc(-c2ccccc2)cc1 (stereo not given) [(E)-6-(Biphenyl-4-yl)-N-(2-hydroxybutan-2-yl)-4-oxohex-5-enamide (3m)]
< 5.00: pIC50 (Cannabinoid receptor 2) | pKi (Cannabinoid receptor 2) | pIC50 (Cannabinoid receptor 1) | pKi (Cannabinoid receptor 1)

Cc1ccc(/C=C/C(=O)CCC(=O)Nc2ccc(O)cc2)cc1 [(E)-N-(4-Hydroxyphenyl)-4-oxo-6-p-tolylhex-5-enamide (3f)]
< 5.00: pIC50 (Cannabinoid receptor 2) | pKi (Cannabinoid receptor 2) | pIC50 (Cannabinoid receptor 1) | pKi (Cannabinoid receptor 1)

CCC(C)(O)NC(=O)CCC(=O)/C=C/c1ccc(C)cc1 (stereo not given) [(E)-N-(2-Hydroxybutan-2-yl)-4-oxo-6-p-tolylhex-5-enamide (3d)]
< 5.00: pIC50 (Cannabinoid receptor 2) | pKi (Cannabinoid receptor 2) | pIC50 (Cannabinoid receptor 1) | pKi (Cannabinoid receptor 1)

O=C(/C=C/c1ccccc1)CCC(=O)NC(CO)(CO)CO [(E)-N-(1,3-Dihydroxy-2-(hydroxymethyl)propan-2-yl)-4-oxo-6-phenylhex-5-enamide (3b)]
< 5.00: pIC50 (Cannabinoid receptor 2) | pKi (Cannabinoid receptor 2) | pIC50 (Cannabinoid receptor 1) | pKi (Cannabinoid receptor 1)

CCC(C)(O)NC(=O)CCC(=O)Nc1cccc2ccccc12 (stereo not given) [N-(2-Hydroxybutan-2-yl)-2-(4-naphthalen-1-ylamino)-4-oxobutanamide (5a)]
< 5.00: pIC50 (Cannabinoid receptor 2) | pKi (Cannabinoid receptor 2) | pIC50 (Cannabinoid receptor 1) | pKi (Cannabinoid receptor 1)

CCOC(=O)CNC(=O)CCC(=O)Nc1cccc2ccccc12 [Ethyl 2-(4-(naphthalen-1-ylamino)-4-oxobutanamido)acetate (5b)]
< 5.00: pIC50 (Cannabinoid receptor 2) | pKi (Cannabinoid receptor 2) | pIC50 (Cannabinoid receptor 1) | pKi (Cannabinoid receptor 1)

CCC(C)(O)NC(=O)CCC(=O)/C=C/c1ccc(N(C)C)cc1 (stereo not given) [(E)-6-[4-(Dimethylamino)phenyl]-N-(2-hydroxybutan-2yl)-4-oxohex-5-enamide (3g)]
< 5.00: pIC50 (Cannabinoid receptor 2) | pKi (Cannabinoid receptor 2) | pIC50 (Cannabinoid receptor 1) | pKi (Cannabinoid receptor 1)

CCC(C)(O)NC(=O)CCC(=O)/C=C/c1ccccc1 (stereo not given) [(E)-N-(2-Hydroxybutan-2-yl)-4-oxo-6-phenylhex-5-enamide (3a)]
< 5.00: pIC50 (Cannabinoid receptor 2) | pKi (Cannabinoid receptor 2) | pIC50 (Cannabinoid receptor 1) | pKi (Cannabinoid receptor 1)

CC(=O)Nc1ccc(OC(=O)CCC(=O)Nc2cccc3ccccc23)cc1 [4-Acetamidophenyl 4-(naphthalen-1-ylamino)-4-oxobutanoate (5c)]
< 5.00: pIC50 (Cannabinoid receptor 2) | pKi (Cannabinoid receptor 2) | pIC50 (Cannabinoid receptor 1) | pKi (Cannabinoid receptor 1)

CCOC(=O)CNC(=O)CCC(=O)/C=C/c1ccc(OC)c(OC)c1 [(E)-Ethyl 2-(6-(3,4-dimethoxyphenyl)-4-oxohex-5-enamido)acetate (3h)]
< 5.00: pIC50 (Cannabinoid receptor 2) | pKi (Cannabinoid receptor 2) | pIC50 (Cannabinoid receptor 1) | pKi (Cannabinoid receptor 1)

Cc1ccc(/C=C/C(=O)CCC(=O)NC(CO)(CO)CO)cc1 [(E)-N-(1,3-Dihydroxy-2-(hydroxymethylpropan-2-yl)-4-oxo-6-p-tolylhex-5-enamide (3e)]
< 5.00: pIC50 (Cannabinoid receptor 2) | pKi (Cannabinoid receptor 2) | pIC50 (Cannabinoid receptor 1) | pKi (Cannabinoid receptor 1)
